A short description of this assay: Inhibition of yeast alpha-glucosidase (unknown origin) using para-nitrophenyl glucopyranoside as substrate preincubated for 10 mins before substrate addition measured after 30 mins by spectrophotometry. Also on record: species or system Saccharomyces cerevisiae.

For orientation: IC50 means the midpoint of a concentration-inhibition curve.

Each structure is given as a SMILES string.

As for `COc1ccc(/C=C2/C(=O)Nc3cc(Cl)ccc32)cc1OC`, the 50% inhibitory concentration (IC50) came to 411 µM. With `O=C1Nc2cc(Cl)ccc2/C1=C\c1ccc(O)c(O)c1` the figure was 2.71 µM; with `O=C1Nc2cc(Cl)ccc2/C1=C\c1ccccc1[N+](=O)[O-]`, 11.4 µM.

For the compound `CCOc1cccc(/C=C2/C(=O)Nc3cc(Cl)ccc32)c1O`, the IC50 came to 37.9 µM. Against the preceding compound, the IC50 is about 3.3-fold higher. With `O=C1Nc2cc(Cl)ccc2/C1=C\c1cccc(O)c1` the figure was 15.2 µM; with `O=C1Nc2cc(Cl)ccc2/C1=C\c1ccc(O)cc1`, 24.7 µM; with `O=C1Nc2cc(Cl)ccc2/C1=C\c1ccc(Cl)cc1Cl`, 55.6 µM.

Consider `COc1cccc(/C=C2/C(=O)Nc3cc(Cl)ccc32)c1O`, for which inhibition was half-maximal at 72.2 µM (IC50). With `O=C1Nc2cc(Cl)ccc2/C1=C\c1ccc([N+](=O)[O-])cc1` the figure was 84.4 µM; with `CN(C)c1ccc(/C=C2/C(=O)Nc3cc(Cl)ccc32)cc1`, 91.2 µM. To `O=C1Nc2cc(Cl)ccc2/C1=C\c1ccccc1` belongs 196 µM; to `COc1ccc(/C=C2/C(=O)Nc3cc(Cl)ccc32)c(OC)c1OC`, 341 µM. In turn, `O=C1Nc2cc(Cl)ccc2/C1=C\c1cccc2ccccc12` displayed an IC50 of 102 µM. To `O=Cc1ccc(/C=C2/C(=O)Nc3cc(Cl)ccc32)cc1` belongs 110 µM.

`O=C1Nc2cc(Cl)ccc2/C1=C\c1ccccc1Cl` displayed an IC50 of 73.1 µM. With `CCOc1ccc(/C=C2/C(=O)Nc3cc(Cl)ccc32)cc1` the figure was 99.7 µM; with `CSc1ccc(/C=C2/C(=O)Nc3cc(Cl)ccc32)cc1`, 51.8 µM. To `COc1ccc(O)c(/C=C2/C(=O)Nc3cc(Cl)ccc32)c1` belongs 82.2 µM; to `COc1ccc(/C=C2/C(=O)Nc3cc(Cl)ccc32)cc1`, 108 µM. With `O=C1Nc2cc(Cl)ccc2/C1=C\c1ccco1` the figure was 173 µM; with `Cc1ccc(/C=C2/C(=O)Nc3cc(Cl)ccc32)cc1`, 115 µM.

`O=C1Nc2cc(Cl)ccc2/C1=C\c1c2ccccc2cc2ccccc12`: the IC50 worked out at 17.3 µM. With `O=C1Nc2cc(Cl)ccc2/C1=C\c1c(Cl)cccc1Cl` the figure was 52.9 µM; with `CC(C)c1ccc(/C=C2/C(=O)Nc3cc(Cl)ccc32)cc1`, 14.3 µM; with `COc1cccc(/C=C2/C(=O)Nc3cc(Cl)ccc32)c1`, 139 µM.

For the origin of these results see ChEMBL document CHEMBL3297650, “Discovery of novel oxindole derivatives as potent α-glucosidase inhibitors” (Bioorg Med Chem, 2014).
